Patent publication US8927499B2, “Glycine derivative capable of inhibiting melanin formation and composition using the same” (Corum Inc., priority 2010, dated 2015)
Where a SMILES comes first, the peptide text is derived from it. [ ]: non-standard residue; d: D form. Sar = CNCC(=O)O

What was measured:
[1] = Color stability test (accelerated, 45° C. oven); format: physicochemical
Procedure: The test samples (compounds (II), (III), and (IV)) and the reference sample are separately dissolved in water and a buffer solution with pH=6 to prepare 0.5 wt % solutions. The buffer solution with pH=6 is a mixture solution of 3.8 ml 0.1M citric acid and 16.2 ml citrate. […] of a test sample are dissolved in the mixture solution to prepare a 0.5 wt % solution. Then, the solutions are placed in a 45° C. oven to perform an accelerated color stability test. After 14 and 28 days, the spectrophotometer is used to measure the light transmittance of these solutions at 440 nm.

[2] = tested on: 3T3 (Swiss albino mouse fibroblast) cells; assay: Cytotoxicity test by MTT assay (3T3); format: cell-based; settings: 3T3 and B16-F10 cells, compared with ascorbic acid derivative known to have no apparent cytotoxicity
Procedure: The cytotoxicity test is evaluated by MTT assay.

B16-F10 cells = assay: Melanogenesis inhibition test; format: cell-based, Mus musculus; settings: 3 days, OD 405 nm, tyrosine + α-MSH stimulated
Procedure: Melanogenesis Inhibition Test In the melanogenesis inhibition test, Kojic acid is used as the positive control. Compounds (II), (III), and (IV) and ascorbic acid derivative are evaluated regarding their whitening effect under a concentration of no cytotoxicity to test the melanogenesis inhibiting ability. B16-F10 B16-F10 cells are placed in a 96-well plate and each well comprises 5000 cells (5000 cells/well). The cells are incubated at 37° C. in 5% CO2 and 10% FBS DMEM (Fetal Bovine Serum Dulbecco's modified Eagle's medium) overnight to allow the cells to attach to the wells. Melanin production rate (%) is defined by the following equation: [formula] where ODT represents the optical density of the test sample at the wavelength 405 nm by the spectrophotometer; ODB represents the optical density of the blank control at 405 nm; ODN represents the optical density of the negative control at 405 nm. The negative control comprises 0.1 mg/ml of tyrosine and 1 μM of α-MSH (α-melanocyte stimulating hormone). The blank control comprises 0.1 mg/ml of tyrosine but no α-MSH. The test sample is prepared by stocking 5 wt % of compound (II), (III), or (IV) in phenol red free DMEM and 5 wt % FBS no phenol red DMEM with 0.1 mg/ml tyrosine and 1 μM α-MSH is prepared and filtered by a 0.22 μm filter. 0.1 mg/ml tyrosine may cause the medium over saturated and thus centrifugal filtration is required. The testing sample was prepared in the medium mentioned above. Until cells were at full confluence, they were treated with test samples and reference samples (prepared above) 100 μL each well for 3 days. After 3 days incubation, 100 μL 1N NaOH is added in each well. The solution is placed on a shaking table at least 10 minutes. The optical density of the test sample at 405 nm is measured. The positive control is Kojic acid (500 ppm concentration). Based on student's t-test, the P value is less than 0.05.

[3] = 0.5 wt % aqueous solution, 14 days
[4] = 0.5 wt % aqueous solution, 28 days
[5] = 0.5 wt % in citric acid buffer solution pH = 6, 14 days
[6] = 0.5 wt % in citric acid buffer solution pH = 6, 28 days

Transmittance % (440 nm) [1, 3] [%]	Transmittance % (440 nm) [1, 4] [%]	Transmittance % (440 nm) [1, 5] [%]	Transmittance % (440 nm) [1, 6] [%]	Structure (SMILES)	safety of using (cytotoxicity) [2]	melanin production rate % ± standard deviation (B16-F10 cells; sample concentration 0.2%) [%]	melanin production rate % ± standard deviation (B16-F10 cells; sample concentration 0.4%) [%]
96.7	95.4			OC[C@H]1O[C@@H](Oc2ccc(O)cc2)[C@H](O)[C@@H](O)[C@@H]1O [arbutin]			
94.9	81	34.8	4.0	O=c1cc(CO)occ1O [Kojic acid]			
		98.6	97.5	CCOC1=C(O)C(=O)O[C@@H]1[C@@H](O)CO [ethyl ascorbic acid]		86.4 ± 2.6	78.9 ± 6.3

Further lines, the molecule ahead of its results:

Structure (SMILES)	Transmittance % (440 nm) [1, 3] [%]	Transmittance % (440 nm) [1, 4] [%]	Transmittance % (440 nm) [1, 5] [%]	Transmittance % (440 nm) [1, 6] [%]	safety of using (cytotoxicity) [2]	melanin production rate % ± standard deviation (B16-F10 cells; sample concentration 0.2%) [%]	melanin production rate % ± standard deviation (B16-F10 cells; sample concentration 0.4%) [%]
CC(=O)NCC(=O)N(C)CC(=O)O [Compound (IV), [(2-Acetylamino-acetyl)-methyl-amino]-acetic acid] (Ac-Gly-[Sar]-OH)	99.7	100	100	100	the same as that of ascorbic acid derivative	60.8 ± 22.3	15.0 ± 5.6
CC(=O)NCC(=O)NCCCC(=O)O [Compound (III), 4-(2-Acetylamino-acetylamino)-butyric acid]	99.6	99.5	100	99.9	the same as that of ascorbic acid derivative	70.4 ± 10.0	14.2 ± 3.0
CC(=O)NCC(=O)NCCC(=O)O [Compound (II), 3(2-acetylamino-acetylamino)-propionic acid]	98.9	99.8	99.4	99.3	the same as that of ascorbic acid derivative	64.7 ± 12.8	11.0 ± 2.9
O=C1O[C@H]([C@@H](O)CO)C(O)=C1O [Ascorbic acid]	37.8	20.8	0.7	2.1			
NCCC(=O)N[C@@H](Cc1cnc[nH]1)C(=O)O [carnosine]						129 ± 1.7	141 ± 10.5
O=C1O[C@H]([C@@H](O)CO)C(O)=C1O[C@H]1O[C@H](CO)[C@@H](O)[C@H](O)[C@H]1O [ascorbic acid 2-glucoside (AA2G), ascorbic acid 2-glucoside]	97.8	96.9				86.8 ± 3.4	76.2 ± 10.5
O=C1O[C@H]([C@@H](O)CO)C(O)=C1OP(=O)([O-])[O-].[Mg+2] [ascorbic acid 2-phosphate magnesium]			85.6	80.9		105.3 ± 3.4	88.4 ± 11.4
